# US8785614B2, “Aberrantly methylated genes in pancreatic cancer” (The Johns Hopkins University, priority 2003, dated 2014)
# Where two headings read alike, the source gives them in different places.
# Columns and labels:
# [1] = tested on: AsPC1 pancreatic cancer cell line
# Protocol: (§1) Mock-treated cells were cultured with the equivalent volume of PBS alone.
# (§2) Total RNA was isolated from cultured cells using TRIZOL reagent (invitrogen, Carlsbad, Calif.) and purified using RNeasy Mini Kit (Qiagen, Valencia, Calif.). First- and second-stranded cDNA was synthesized from 10 μg of total RNA using 17-dT) primer (Genset Corp., La Jolla, Calif.) and Superscript Choice system (Invitrogen). Labeled cRNA was synthesized from the purified cDNA by in vitro transcription reaction using the BioArray High Yield RNA Transcript Labeling Kit (Enzo Diagnostics, Inc., Farmingdale, N.Y.) at 37° C. for 6 h. The cRNA was fragmented at 94° C. for 35 min. in a fragmentation buffer [40 mM Tris-acetate @ pH 8.1, 100 mM potassium acestate, and 30 mM magnesium acetate]. The fragmented cRNA was then hybridized to the Human Genome U133A chips (Affymetrix, Santa Clara, Calif.) with 18462 unique gene/EST transcripts at 45° C. for 16 h. The washing and staining procedure was performed in the Affymetrix Fluidics Station according to the manufacturer's instructions. The probes were then scanned using a laser scanner, and signal intensity for each transcript (background-subtracted and adjusted for noise) was calculated using Microarray Suite Software 5.0 (Affymetrix).
# (§3) Fold change analysis of signal intensities obtained from oligonucleotide microarrays between the two treatment groups was performed using Data Mining software (Afrymetrix).
# (§4) The global changes in gene expression proxies induced by 5Aza-dC in four pancreatic cancer cell lines (AsPCl, Hs766T, MiaPaCa2, and Panel) were determined using the Afrymetrix U133 oligonucleotide microarrays with 18462 probes sets (transcripts) covering over 13000 full-length sequences of known genes.
# [2] = tested on: Panc1 pancreatic cancer cell line
# Protocol: as §1, §2, §3, §4
compound,measurement,setting,value
"Nc1ncn([C@H]2C[C@H](O)[C@@H](CO)O2)c(=O)n1 [5Aza-dC, 5 aza 2′ deoxycytidine]",Fold-change after 5Aza-dC treatment,"[1]; ANGPT2, AsPC1",6.15 fold
same,"transcripts with >5-fold increase, share of the 18462 transcripts analyzed",[1]; AsPC1,1.2%
same,transcripts with substantial increase (>5-fold) in signal intensities,"[1]; AsPC1, vs mock-treated",225 transcripts
same,Fold-change after 5Aza-dC treatment,"[1]; BARD1, AsPC1",−1.07 fold
same,Fold-change after 5Aza-dC treatment,"[1]; BNIP3, AsPC1",6.12 fold
same,Fold-change after 5Aza-dC treatment,"[1]; BST2, AsPC1",1.97 fold
same,Fold-change after 5Aza-dC treatment,"[1]; CACNA1G, AsPC1",1.83 fold
same,Fold-change after 5Aza-dC treatment,"[1]; CCNE2, AsPC1",1.48 fold
same,Fold-change after 5Aza-dC treatment,"[1]; CDKN1A (p21), AsPC1",2.21 fold
same,Fold-change after 5Aza-dC treatment,"[1]; CDKN1C, AsPC1",0.6 fold
same,Fold-change after 5Aza-dC treatment,"[1]; CLDN5, AsPC1",22.34 fold
same,Fold-change after 5Aza-dC treatment,"[1]; CSF1, AsPC1",1.12 fold
same,Fold-change after 5Aza-dC treatment,"[1]; DR3, AsPC1",1.47 fold
same,Fold-change after 5Aza-dC treatment,"[1]; FOXE1, AsPC1",3.51 fold
same,Fold-change after 5Aza-dC treatment,"[1]; GAGE1, AsPC1",−0.54 fold
same,Fold-change after 5Aza-dC treatment,"[1]; GAGE4, AsPC1",15.66 fold
same,Fold-change after 5Aza-dC treatment,"[1]; GAGE6, AsPC1",15.59 fold
same,Fold-change after 5Aza-dC treatment,"[1]; GAGE7, AsPC1",14.08 fold
same,Fold-change after 5Aza-dC treatment,"[1]; HOXA1, AsPC1",25.8 fold
same,Fold-change after 5Aza-dC treatment,"[1]; IGF2, AsPC1",0.55 fold
same,Fold-change after 5Aza-dC treatment,"[1]; IL1R1, AsPC1",7.51 fold
same,Fold-change after 5Aza-dC treatment,"[1]; ISG20, AsPC1",−1.12 fold
same,Fold-change after 5Aza-dC treatment,"[1]; JPH3, AsPC1",1.27 fold
same,Fold-change after 5Aza-dC treatment,"[1]; KLK10, AsPC1",1.03 fold
same,Fold-change after 5Aza-dC treatment,"[1]; LDOC1, AsPC1",8.99 fold
same,Fold-change after 5Aza-dC treatment,"[1]; LHX1, AsPC1",5.22 fold
same,Fold-change after 5Aza-dC treatment,"[1]; MAGE1, AsPC1",1.52 fold
same,Fold-change after 5Aza-dC treatment,"[1]; MATN1, AsPC1",−1.44 fold
same,Fold-change after 5Aza-dC treatment,"[1]; NEFH, AsPC1",2.94 fold
same,Fold-change after 5Aza-dC treatment,"[1]; NPTX2, AsPC1",13.97 fold
same,Fold-change after 5Aza-dC treatment,"[1]; PAX6, AsPC1",8.94 fold
same,Fold-change after 5Aza-dC treatment,"[1]; PDYN, AsPC1",1.33 fold
same,Fold-change after 5Aza-dC treatment,"[1]; PLAT, AsPC1",−1.15 fold
same,Fold-change after 5Aza-dC treatment,"[1]; PLEK2, AsPC1",1.37 fold
same,Fold-change after 5Aza-dC treatment,"[1]; SARP2, AsPC1",−1.89 fold
same,Fold-change after 5Aza-dC treatment,"[1]; SMARCA1, AsPC1",7.89 fold
same,Fold-change after 5Aza-dC treatment,"[1]; ST14, AsPC1",−1.21 fold
same,Fold-change after 5Aza-dC treatment,"[1]; TIMP3, AsPC1",11.89 fold
same,Fold-change after 5Aza-dC treatment,"[1]; TJP2, AsPC1",−1.24 fold
same,Fold-change after 5Aza-dC treatment,"[1]; TNF, AsPC1",−1.17 fold
same,Fold-change after 5Aza-dC treatment,"[1]; UCHL1, AsPC1",6.62 fold
same,Fold-change after 5Aza-dC treatment,"[1]; WNT7A, AsPC1",2.7 fold
same,Fold-change after 5Aza-dC treatment,"[1]; XAGE-1, AsPC1",28.59 fold
same,Fold-change after 5Aza-dC treatment,"[1]; granulocytemacrophage colony-stimulating factor (M11734), AsPC1",1.44 fold
same,Fold-change after 5Aza-dC treatment,"[1]; interferon, alpha-inducible protein (NM_022873), AsPC1",4.48 fold
same,Fold-change after 5Aza-dC treatment,"[1]; p53-induced protein (PIGII), AsPC1",−1.22 fold
same,Fold-change after 5Aza-dC treatment,"[1]; reprimo, AsPC1",1.66 fold
same,Fold-change after 5Aza-dC treatment,"[1]; stratifin (14-3-3 sigma), AsPC1",−1.48 fold
same,Fold-change after 5Aza-dC treatment,"[1]; stromal antigen 3 (STAG5), AsPC1",14.06 fold
same,Fold-change after 5Aza-dC treatment,"[1]; testin, AsPC1",−1.23 fold
same,Fold-change after 5Aza-dC treatment,"[2]; ANGPT2, Panc1",0.91 fold
same,Fold-change after 5Aza-dC treatment,"[2]; BARD1, Panc1",−1.01 fold
same,Fold-change after 5Aza-dC treatment,"[2]; BNIP3, Panc1",−1.07 fold
same,Fold-change after 5Aza-dC treatment,"[2]; BST2, Panc1",−1.04 fold
same,Fold-change after 5Aza-dC treatment,"[2]; CACNA1G, Panc1",5.26 fold
same,Fold-change after 5Aza-dC treatment,"[2]; CCNE2, Panc1",1.52 fold
same,Fold-change after 5Aza-dC treatment,"[2]; CDH3, Panc1",2.31 fold
same,Fold-change after 5Aza-dC treatment,"[2]; CDKN1A (p21), Panc1",1.93 fold
same,Fold-change after 5Aza-dC treatment,"[2]; CDKN1C, Panc1",3.77 fold
same,Fold-change after 5Aza-dC treatment,"[2]; CLDN5, Panc1",1.88 fold
same,Fold-change after 5Aza-dC treatment,"[2]; CSF1, Panc1",−1.91 fold
same,Fold-change after 5Aza-dC treatment,"[2]; FOXE1, Panc1",1.7 fold
same,Fold-change after 5Aza-dC treatment,"[2]; GAGE1, Panc1",0.46 fold
same,Fold-change after 5Aza-dC treatment,"[2]; GAGE3, Panc1",9.78 fold
same,Fold-change after 5Aza-dC treatment,"[2]; GAGE4, Panc1",35.44 fold
same,Fold-change after 5Aza-dC treatment,"[2]; GAGE6, Panc1",35.5 fold
same,Fold-change after 5Aza-dC treatment,"[2]; GAGE7, Panc1",36.1 fold
same,Fold-change after 5Aza-dC treatment,"[2]; HOXA1, Panc1",1.26 fold
same,Fold-change after 5Aza-dC treatment,"[2]; IGF2, Panc1",9.41 fold
same,Fold-change after 5Aza-dC treatment,"[2]; IL1R1, Panc1",1.37 fold
same,Fold-change after 5Aza-dC treatment,"[2]; ISG20, Panc1",−0.84 fold
same,Fold-change after 5Aza-dC treatment,"[2]; JPH3, Panc1",−4.18 fold
same,Fold-change after 5Aza-dC treatment,"[2]; KLK10, Panc1",−1.05 fold
same,Fold-change after 5Aza-dC treatment,"[2]; LDOC1, Panc1",9.19 fold
same,Fold-change after 5Aza-dC treatment,"[2]; LHX1, Panc1",1.79 fold
same,Fold-change after 5Aza-dC treatment,"[2]; MAGE1, Panc1",7.32 fold
